Experimental data from patent US8227205B2 (priority 2007, dated 2012).

Columns and labels:
Type in all cases: cell-based
[1] = tested on: Jurkat cells; experiment: CytoTox-Glo live and dead cell luminescence assay; settings: Jurkat cells, 10,000 cells/well, 6 hours, FIG. 5/FIG. 7
Procedure: Ionomycin (a calcium ionophore which affects calcium flux across cell membranes, and therefore a model necrosis inducing agent at high concentrations) was two fold serially diluted from 100 μM in RPMI 1640+10% FBS in 50 μL volumes. Jurkat cells were added to 10,000 cells/well in a 50 μL volume. The plate was shaken briefly using an orbital shaker and then incubated for 6 hours at 37° C. CytoTox-Glo Reagent was prepared as above and added to each well in a equal volume (100 μL) per well. The plate was incubated at room temperature for 15 minutes and the dead cell signal measured using a BMG PolarStar. Digitonin (20 mg/mL in DMSO) was diluted to 300 μg/mL in CytoTox-Glo buffer and added in 20 μL volumes per well to facilitate complete cellular lysis. Luminescence was measured after 15 minutes of incubation at room temperature.
The luminescent signal collected after lysis was adjusted to reflect the “live cell” contribution by subtracting the initial dead cell signal. […]
Staurosporine (multiple mechanism apoptosis inducer) was two fold serially diluted from 20 μM in RPMI 1640+10% FBS in a microwell plate in 50 μL, volumes. […] The plate was incubated at room temperature for 15 minutes and the dead cell signal measured using a BMG PolarStar. […] Luminescence was measured after 15 minutes of incubation at room temperature. […]

[2] = tested on: K562cells; experiment: CytoTox-Glo dual measurement of cell viability and cytotoxicity (dead cell luminescence, then digitonin lysis, subtractive live cell signal); settings: K562 cells, 5,000 cells/well, 24 hours, two-fold serial dilution from 10 μM, FIG. 11A
Procedure: (§1) Campothecin was two-fold serially-diluted in RPMI 1640+10% FBS medium from 10 μM and added in 50 μL volumes. The cells were incubated at 37° C., 5% CO2 for 24 hours. CytoTox-Glo reagent was prepared as described above and added to each well in an equal volume (100 μL). After 15 minutes of incubation, the dead cell signal was measured. Digitonin (20 mg/mL in DMSO) was diluted in CytoTox-Glo buffer and added in 20 μL volumes to each well to facilitate complete cell lysis. Luminescence was measured after 15 minutes of incubation at room temperature.
The luminescent signal collected after lysis was adjusted to reflect the “live cell” contribution by subtracting the initial dead cell signal. The data were plotted as the non-viable and viable signals versus the concentration of campothecin (FIG. 11A). […] If only viability was measured, one might conclude that the compound was substantially cytotoxic. If only cytotoxicity was measured, one might conclude that the compound was not very potent. Either interpretation would be faulty.

[3] = tested on: HeLa cells; experiment: as above; settings: HeLa cells, 10,000 cells/well, 24 hours, FIG. 11B/11C
Procedure: In FIG. 11B, HeLa cells were seeded at a 10,000 cells/well in DMEM+10% FBS in 50 μl volumes and incubated overnight at 37° C. in 5% CO2. Nocodazole was two-fold serially diluted in DMEM+10% FBS in a separate plate from 2 μM and added in 50 μL it volumes (highest final dosage is 1,000 nM). The cells were allowed to incubate with the compound for 24 hours. CytoTox-Glo Reagent was prepared as above and added to each well in an equal volume (100 μL). After 15 minutes of incubation, the dead cell signal was collected. Digitonin (20 mg/mL in DMSO) was diluted in CytoTox-Glo buffer and added in 20 μL volumes to each well to facilitate complete cell lysis. Luminescence was measured after 15 minutes of incubation at room temperature.
The luminescent signal collected after lysis was adjusted to reflect the “live cell” contribution by subtracting the initial dead cell signal. The data were plotted as the non-viable and viable signals versus the concentration of nocodazole.
In FIG. 11C, HeLa cells were seeded at a 10,000 cells/well in DMEM+10% FBS in 50 μL volumes and incubated overnight at 37° C. in 5% CO2. Colchicine was two-fold serially diluted in DMEM+10% FBS in a separate plate from 1,000 nM and added in 50 μL volumes (highest final dosage was 500 nM). The cells were allowed to incubate with the compound for 24 hours. […] Luminescence was measured after 15 minutes of incubation at room temperature. […]

[4] = tested on: DU-145 cells; experiment: CytoTox-Glo live and dead cell luminescence assay; settings: DU-145 cells, 5,000 cells/well, 48 hours, FIG. 10A
Procedure: as §1, with “DU-145 cells were seeded at a density of 5,000 cells/well in 50 μL of MEM+10% FBS and allowed to attach overnight. Epoxomicin (a proteasome inhibitor)” for “Campothecin”, “serially diluted from 5 μM” for “two-fold serially-diluted”, “MEM+10%” for “RPMI 1640+10%”, “FBS” for “FBS medium from 10 μM”, “with the compound” for “at 37° C., 5% CO2”, “48” for “24”
The luminescent signal collected after lysis was adjusted to reflect the “live cell” contribution by subtracting the initial dead cell signal. The data were plotted as the non-viable and viable signals versus the concentration of epoxomicin (FIG. 10A). […] The data also represents yet another toxin and mechanistic form of cell death.

| Compound | dead and live cell signals versus the concentration of compound [1] | non-viable and viable signals versus the concentration of compound (viability and cytotoxicity) [3] | also measured |
| --- | --- | --- | --- |
| CN[C@@H]1C[C@H]2O[C@@](C)([C@@H]1OC)n1c3ccccc3c3c4c(c5c6ccccc6n2c5c31)C(=O)NC4 [Staurosporine] | live and dead cells were inversely complimentary |  |  |
| CC[C@@]1(O)C(=O)OCc2c1cc1n(c2=O)Cc2cc3ccccc3nc2-1 [campothecin, Campothecin] |  |  | non-viable and viable signals versus the concentration of compound (viability and cytotoxicity) [2]: early cytotoxicity because of cell-cycle arrest |
| COc1cc2c(c(OC)c1OC)-c1ccc(OC)c(=O)cc1[C@@H](NC(C)=O)CC2 [colchicine, Colchicine] |  | viability is reduced because of the cytotoxicity of the compound |  |
| CC[C@H](C)[C@H](NC(=O)[C@H]([C@@H](C)CC)N(C)C(C)=O)C(=O)N[C@H](C(=O)N[C@@H](CC(C)C)C(=O)[C@@]1(C)CO1)[C@@H](C)O [epoxomicin, Epoxomicin] |  |  | non-viable and viable signals versus the concentration of compound [4]: viable and non-viable cells were inversely complimentary |
| C[C@H](CCC(=O)O)C[C@H](C)C[C@H](C)C(=O)/C=C(\O)[C@H](C)C[C@H](C)C/C=C/[C@@H](C)[C@@H](O)[C@@H](C)[C@@H](O)C[C@@H]1CC[C@@](C)([C@H]2CC[C@@](C)([C@@H](C)O)O2)O1 [ionomycin, Ionomycin] | live and dead cells were inversely complimentary |  |  |
| COC(=O)Nc1nc2ccc(C(=O)c3cccs3)cc2[nH]1 [nocodazole, Nocodazole] |  | viability and cytotoxicity are ratiometric |  |
